Results published in US11883539B2, “Pharmaceutical compositions of berberine with EPA and DHA, and methods thereof” (SHENZHEN HIGHTIDE BIOPHARMACEUTICAL, LTD., priority 2015, dated 2024).
Like-named read-outs stand apart in the source and are kept apart here.

Experiment: Single-dose pharmacokinetics study in rats (BBR•HCl, EPA-EE, BBR + EPA-EE; 3 rats per group)
Type: in vivo
Details: male, Sprague-Dawley, rat, SD rats, single oral administration, plasma
Protocol: In the single-dose pharmacokinetics study in rats, after 7-day acclimation, healthy male Sprague-Dawley (SD) rats with the body weight of 210-250 g were randomized into four groups as follows (3 rats per group).
The rats in each group were orally treated with the suspensions of the corresponding testing articles indicated above in 0.5% gum tragacanth respectively. Blood samples of the test animals were collected pre-dose and at the time points of 15 min, 30 min, 1 h, 1.5 h, 2 h, 4 h, 8 h, 24 h post-dose. The collected blood samples (approximately 400 μL) were placed into tubes containing heparin sodium and centrifuged at 8,000 rpm for 6 minutes at 4° C. to separate plasma. The obtained plasma from each sample was stored at −80° C. until being analyzed.
Plasma concentrations of BBR and EPA were determined using tandem mass spectrometry (LC-MS/MS) analysis. A non-compartmental module of WinNonlin® Professional 5.2 (Pharsight; St. Louis MO), was used to calculate PK parameters. The abbreviation AUC(0-t) represents area under the curve from the time of dosing to the time of the last observation, the AUC(0-∞) represents area under the curve from the time of dosing to infinity, and the Cmax represents maximum concentration detected.

Work on `CCC=CCC=CCC=CCC=CCC=CCCCC(=O)O` (stereo in doubt) [EPA, (5Z,8Z,11Z,14Z,17Z)-5,8,11,14,17-icosapentaenoic acid] yielded an AUC(0-t) (EPA-EE 45.48 mg/Kg (alone or + BBR•HCl 51.13 mg/Kg), read-out: EPA (Free acid) AUC(0-t)) of 3.75 µg·h/mL, an AUC(0-inf) (EPA-EE 45.48 mg/Kg (alone or + BBR•HCl 51.13 mg/Kg), read-out: EPA (Free acid) AUC(0-∞)) of 6.6 µg·h/mL and a Cmax (EPA-EE 45.48 mg/Kg (alone or + BBR•HCl 51.13 mg/Kg), read-out: EPA (Free acid) Cmax) of 0.629 µg/mL.

With `COc1ccc2cc3[n+](cc2c1OC)CCc1cc2c(cc1-3)OCO2` [BBR, 5,6-dihydro-9,10-dimethoxybenzo[g]-1,3-benzodioxolo[5,6-a]quinolizinium] the AUC(0-t) (BBR•HCl 51.13 mg/Kg (alone or + EPA-EE 45.48 mg/Kg), read-out: BBR AUC(0-t)) was 0.00746 µg·h/mL, the AUC(0-inf) (BBR•HCl 51.13 mg/Kg (alone or + EPA-EE 45.48 mg/Kg), read-out: BBR AUC(0-∞)) was 0.00884 µg·h/mL and the Cmax (BBR•HCl 51.13 mg/Kg (alone or + EPA-EE 45.48 mg/Kg), read-out: BBR Cmax) was 0.00095 µg/mL.
